We go through 1 molecule from patent US9220243B2, “Models of atherosclerosis, hyperlipidemia, lipoprotein oxidation and blood vessel inflammation and methods for making and using them” (THE REGENTS OF THE UNIVERSITY OF CALIFORNIA, priority 2006, dated 2015).

The experiment concerns Fli:EGFP zebrafish larvae. Briefly: High fat diet zebrafish larvae model with fluorescent cholesterol ester, ezetimibe added to the tank water, confocal imaging. The settings on record: 10 days on high fat diet with fluorescent (red) cholesterol ester. The experiment is classed as in vivo, zebrafish (Danio rerio). How it is done: Spray cholesterol (4% in ether) on the fish food, let it dry for 2 hours in a fume hood. Collect and keep at 4° C. Feed the fish with high-cholesterol food for 7 days to 8 weeks.
To visualize the lipid in larvae zebrafish, add to the cholesterol ether solution 10 μg/ml of cholesteryl BODIPY 576/589 C11 (Invitrogen, C12681). […] Feed fli:EGFP zebrafish with this high-cholesterol diet for one week.
Use a fluorescent confocal microscope to image dorsal aorta of a fli:EGFP zebrafish (wild type or ApoE knockdown) that was placed on a high-cholesterol diet, and compare with a control zebrafish that was fed a normal diet.
Visualize using a C1si confocal microscope: • endothelial cell morphology and the morphology of the vessel • accumulation of fluorescent lipid in the artery wall
FIG. 5. Ezetimibe reduces cholesterol absorption in zebrafish intestine (A) and prevents vascular damage (B). Fli:EGFP zebrafish larvae were feeding for 10 days on high fat diet with a fluorescent (red) cholesterol ester, with or without the addition of ezetimibe in the tank water. Ezetimibe, or (3R,4S)-1-(4-fluorophenyl)-3-((3S)-3-(4-fluorophenyl)-3-hydroxypropyl)-4-(4-hydroxyphenyl)-2-azetidinone, is an FDA-approved medicine (marketed as ZETIA™), which inhibits the absorption of cholesterol by the small intestine. […] Remarkably, ezetimibe rescued blood vessels from high fat diet-induced damage.

Molecules are shown by their SMILES.

As for `O=C1[C@H](CC[C@H](O)c2ccc(F)cc2)[C@@H](c2ccc(O)cc2)N1c1ccc(F)cc1` [Ezetimibe, (3R,4S)-1-(4-fluorophenyl)-3-((3S)-3-(4-fluorophenyl)-3-hydroxypropyl)-4-(4-hydroxyphenyl)-2-azetidinone], the “level of cholesterol accumulated in the digestive system (intensity of red fluorescence)” value (FIG. 5(A)) is “considerably reduced a level of cholesterol accumulated in the digestive system”. Under “FIG. 5(B)”, the “pathological changes in the endothelial layer morphology inflicted by high fat diet (vascular damage)” value was “prevented pathological changes in the endothelial layer morphology”.
